Results reported in article PMC10747250, “Structure-Based Optimization of 1,2,4-Triazole-3-Thione Derivatives: Improving Inhibition of NDM-/VIM-Type Metallo-β-Lactamases and Synergistic Activity on Resistant Bacteria” (Pharmaceuticals, 2023).
Several values for one entry are separate records, joined by “and”; a condition that tells them apart may be missing. Identical values can stand only once. Like-named read-outs stand apart in the source and are kept apart here. Each block holds one compound with its values, some of them ahead of it.

Tests used:
[1] = biological target: VIM-2 (Escherichia coli, UniProt Q5U7L7); test: VIM-2 spectrophotometric enzyme inhibition assay (meropenem hydrolysis); type: biochemical; conditions: 25 °C; for % Inib vs VIM-2: meropenem 17 μM, 5 min incubation, NI = no inhibition (≤15%)
Procedure: The synthesized compounds were all tested for their inhibitory activity against targeted MBLs using a spectrophotometric assay (Table S2). After an initial validation at fixed concentration, compounds yielding > 0% inhibition were profiled in dose–response experiments to determine their IC50. […] Assays were run after a 5 min incubation. The Ki was either calculated by the Cheng–Prusoff equation assuming competitive inhibition, or, for selected inhibitors, fully determined with Dixon plots (Figure S1).
(§1) The percentage of inhibition (%Inh) of 1,2,4-triazole derivatives was determined against a panel of subclass B1 MBLs (NDM-1, VIM-1, VIM-2, and IMP-1). Each compound was initially tested at a fixed concentration for inhibitory activity vs. the targeted enzymes. For the best active inhibitors, half-maximal inhibitory concentration (IC50) and Ki values were determined. Reactions were monitored using a Jasco V-730 spectrophotometer ( JASCO EUROPE S.R.L. Via Luigi Cadorna 1 23894 Cremella (LC) Italy) using nitrocefin or meropenem as reported substrates. Compounds were dissolved in dimethyl sulfoxide (DMSO) and stored at −20 °C. For VIM-1, VIM-2, and IMP-1MBLs, assays were conducted in 20 mM of HEPES, 100 mM of NaCl, and ZnSO4 at 10 µM at pH 7.4 at 25 °C with 0.01% v/v Triton X-100 to avoid compound aggregation and promiscuous inhibition. For NDM-1, assays were conducted in 20 mM of TRIS HCl + 150 mM of NaCl at pH 7.5 at 25°C with 0.01% v/v Triton X-100 to avoid aggregation.
(§2) For all targeted proteins, the reaction was typically initiated by adding the substrate to the reaction buffer last, after a 5 min preincubation. After brief shaking, the reading was performed for a total kinetic time of 240 s at 25 °C. The IC50 values were determined by measuring the rate of hydrolysis of the reporter substrate in the presence of five different inhibitor concentrations. The binding affinity Ki was generally estimated from the determined IC50 using the Cheng–Prusoff equation as per competitive inhibition. For the best inhibitors, the mechanism of inhibition and Ki were determined with a Dixon plot (CP 22, CP 35, CP 56, and CP 57 against NDM-1; compound CP 57 against VIM-2).

[2] = biological target: VIM-1 (Pseudomonas aeruginosa, UniProt A0A0F7KYQ8); test: VIM-1 spectrophotometric enzyme inhibition assay (nitrocefin hydrolysis); type: biochemical; design: dose or concentration left out as unconfirmed; conditions: 5 min, read-out: % Inib vs VIM-1
Procedure: (§3) The synthesized compounds were all tested for their inhibitory activity against targeted MBLs using a spectrophotometric assay (Table S2). After an initial validation at fixed concentration, compounds yielding > 0% inhibition were profiled in dose–response experiments to determine their IC50. The IC50 values were determined by measuring the rate of hydrolysis of the reporter substrate meropenem MEM ([S] = 57 μM; Km = 63.4 μM) in the presence of five different inhibitor concentrations. Assays were run after a 5 min incubation. The Ki was either calculated by the Cheng–Prusoff equation assuming competitive inhibition, or, for selected inhibitors, fully determined with Dixon plots (Figure S1).
as §1
Table S2. The inhibitory activity of 4-amino-4H-1,2,4-triazole-3-thiol derivatives discussed here. […]
Tests were conducted at 25° C by following the absorbance variation observed upon reporter substrate (Meropenem 57 μM for NDM-1, 17 μM for VIM-2) or Nitrocefin (23 μM for VIM-1). The percentage of inhibition is reported except when ≤ 15% and in this case is indicated by NI “no inhibition”. Compounds concentration was […] vs NDM-1. Assays were run after a 5-minutes incubation. […]

[3] = biological target: T1, NDM-1 (Klebsiella pneumoniae, UniProt C7C422); test: NDM-1 spectrophotometric enzyme inhibition assay (meropenem hydrolysis); type: biochemical; design: inhibition: dose or concentration left out as unconfirmed; conditions: for inhibition: 5 min, read-out: % Inib vs NDM-1; for NDM-1 inhibitory activity: at 100 μM; for IC50: substrate MEM 57 μM, 5 min incubation, triplicate, NI: no inhibition (<30% inhibition at 100 µM); for IC50 / Ki: 25 °C; for Ki: substrate MEM
T1 construct: made in house; host or cells: E. coli BL21(DE3)
Procedure: as §3, §1, §2

[4] = biological target: MBLs; design: method as in PMID 36450011, PMID 31871094, PMID 32482673; conditions: cited from earlier work
[5] = tested on: K. pneumoniae VA-416/02 (VIM-4); test: Synergy with meropenem, broth microdilution MIC; type: cell-based
Procedure: (§4) The potential synergistic activity of the three best inhibitors (CP 35, CP 56, and CP 57) was tested using the broth microdilution method on six MBL-producing multidrug-resistant clinical isolates. […] Although apparently modest, this increase in synergistic activity represents a significant improvement over the previous generation of triazole-thione β-lactamase inhibitors previous described by our group.

[6] = tested on: K. pneumoniae SI-1072 (NDM-1); test: Synergy with meropenem, broth microdilution MIC; type: cell-based
Procedure: as §4

[7] = tested on: K. pneumoniae SI-518 (NDM-1); test: Synergy with meropenem, broth microdilution MIC; type: cell-based
Procedure: as §4

[8] = tested on: P. aeruginosa VA-182/00 (VIM-2); test: Synergy with meropenem, broth microdilution MIC; type: cell-based, Pseudomonas aeruginosa
Procedure: as §4

[9] = tested on: six MBL-producing multidrug-resistant clinical isolates; test: Growth inhibition by the compound tested alone; type: cell-based; conditions: 32 μg/mL, without MEM
Procedure: as §4

[10] = Ki calculated from IC50 as per competitive inhibition (Cheng–Prusoff), read-out: NDM-1 Ki (calculated from IC50)
[11] = Klebsiella pneumoniae, MEM alone (Cpd: None)
[12] = compound 32 μg/mL, VIM-4-producing K. pneumoniae
[13] = compound 32 μg/mL, NDM-1-producing K. pneumoniae (strain not given)
[14] = Ki determined with Dixon plots, read-out: NDM-1 Ki (Dixon plots)

T1 sequence (C7C422 29-270, looked up, species assumed): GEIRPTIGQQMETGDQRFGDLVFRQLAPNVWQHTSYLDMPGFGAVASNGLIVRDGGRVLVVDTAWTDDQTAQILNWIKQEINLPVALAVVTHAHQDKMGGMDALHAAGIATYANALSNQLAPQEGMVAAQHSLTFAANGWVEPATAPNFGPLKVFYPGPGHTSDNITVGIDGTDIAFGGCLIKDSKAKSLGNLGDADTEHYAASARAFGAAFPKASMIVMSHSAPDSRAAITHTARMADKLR

Structure (SMILES): FC(F)(F)c1nnc(S)n1/N=C/c1nn[nH]n1 [CP 46, (E)-4-(((2H-Tetrazol-5-yl)methylene)amino)-5-(trifluoromethyl)-4H-1,2,4-triazole-3-thiol]
% Inib vs VIM-2 [1]: 42%

Structure (SMILES): Sc1nncn1/N=C/c1ccccn1 [CP 32, (E)-4-((Pyridin-2-ylmethylene)amino)-4H-1,2,4-triazole-3-thiol]
inhibition [2]: 17% | inhibition [3]: 20%

Structure (SMILES): N#Cc1ccccc1/C=N/n1cnnc1S [CP 31, (E)-2-(((3-Mercapto-4H-1,2,4-triazol-4-yl)imino)methyl)benzonitrile]
inhibition [3]: 10%

Structure (SMILES): COc1ccccc1/C=N/n1cnnc1S [CP 21, (E)-4-((2-Methoxybenzylidene)amino)-4H-1,2,4-triazole-3-thiol]
inhibition [2]: 32% | inhibition [3]: 38%

Structure (SMILES): O=C(O)c1ccccc1/C=N/n1cnnc1S [CP 29, (E)-2-(((3-Mercapto-4H-1,2,4-triazol-4-yl)imino)methyl)benzoic acid]
inhibition [2]: 17% | NDM-1 inhibitory activity [3]: no inhibitory activity | IC50 [3]: > 100 µM

Ki [3, 10]: 220 µM
Structure (SMILES): FC(F)(F)c1ccc(-c2nnc(S)n2/N=C/c2cccc(Br)c2)cc1 [CP 55, (E)-4-((3-Bromobenzylidene)amino)-5-(4-(trifluoromethyl)phenyl)-4H-1,2,4-triazole-3-thiol]

Ki [3, 10]: 83 µM
Structure (SMILES): O=C(O)c1ccccc1/C=N/n1c(S)nnc1C(F)(F)F [CP 45, (E)-2-(((3-Mercapto-5-(trifluoromethyl)-4H-1,2,4-triazol-4-yl)imino)methyl)benzoic acid]

Structure (SMILES): Sc1nncn1/N=C/c1cccc2ccccc12 [CP 18, (E)-4-((Naphthalen-1-ylmethylene)amino)-4H-1,2,4-triazole-3-thiol]
inhibition [2]: 33% | inhibition [3]: > 100% | IC50 [3]: 52 ± 7.5 µM

Structure (SMILES): COc1ccc(/C=N/n2cnnc2S)cc1 [CP 19, (E)-4-((4-Methoxybenzylidene)amino)-4H-1,2,4-triazole-3-thiol]
inhibition [2]: 15% | inhibition [3]: 24%

Structure (SMILES): NCCN[C@H]1CC[C@H](CC(=O)N[C@H]2Cc3cccc(C(=O)O)c3OB2O)CC1 [taniborbactam]
Ki values [4]: low nanomolar range

Structure (SMILES): Sc1nncn1/N=C/c1ccccc1Br [CP 23, (E)-4-((2-Bromobenzylidene)amino)-4H-1,2,4-triazole-3-thiol]
inhibition [3]: 67% | IC50 [3]: 83 ± 3.3 µM

MIC [5, 11]: 16 µg/mL | MIC [6, 11]: 128 µg/mL | MIC [7, 11]: 128 µg/mL | MIC ([8]; Pseudomonas aeruginosa, MEM alone (Cpd: None)): 256 µg/mL
Structure (SMILES): C[C@@H](O)[C@H]1C(=O)N2C(C(=O)O)=C(S[C@@H]3CN[C@H](C(=O)N(C)C)C3)[C@H](C)[C@H]12 [MEM, meropenem, reference compound]

Structure (SMILES): Sc1nncn1/N=C/c1ccc(Br)cc1 [CP 24, (E)-4-((4-Bromobenzylidene)amino)-4H-1,2,4-triazole-3-thiol]
inhibition [2]: 28% | inhibition [3]: 64% | IC50 [3]: 83.1 ± 2.7 µM

Structure (SMILES): O=C(O)c1ccccc1/C=N/n1c(S)nnc1-c1ccc(C(F)(F)F)cc1 [CP 57, (E)-2-(((3-Mercapto-5-(4-(trifluoromethyl)phenyl)-4H-1,2,4-triazol-4-yl)imino)methyl)benzoic acid]
reduction of meropenem MIC [5, 12]: four-fold | synergistic activity with MEM [5, 12]: detectable synergistic effect | reduction of meropenem MIC [6, 13]: four-fold | reduction of meropenem MIC [7, 13]: four-fold | Ki [3, 14]: 5.59 µM and 5.6 µM | % Inib vs VIM-2 [1]: > 100% | Ki ([1]; substrate MEM, Ki determined with Dixon plot, read-out: VIM-2 Ki (Dixon plots)): 4.14 µM and 4.1 µM | growth inhibition, compound tested alone [9]: no growth inhibition

Structure (SMILES): O=C(O)c1c(F)ccc2c1OB(O)[C@@H]1C[C@H]21 [QPX7728]
Ki values [4]: low nanomolar range

Structure (SMILES): O=C(O)c1ccc(/C=N/n2cnnc2S)cc1 [CP 30, (E)-4-(((3-Mercapto-4H-1,2,4-triazol-4-yl)imino)methyl)benzoic acid]
inhibition [2]: 18% | NDM-1 inhibitory activity [3]: no inhibitory activity | IC50 [3]: > 100 µM

Structure (SMILES): FC(F)(F)c1nnc(S)n1/N=C/c1cccc(Br)c1 [CP 35, (E)-4-((3-Bromobenzylidene)amino)-5-(trifluoromethyl)-4H-1,2,4-triazole-3-thiol]
synergistic activity with MEM [5, 12]: no synergistic activity at all | synergistic activity with MEM ([8]; compound 32 μg/mL, VIM-2 P. aeruginosa): no synergistic activity at all | Ki [3, 14]: 25.8 µM | % Inib vs VIM-2 [1]: 53% | growth inhibition, compound tested alone [9]: no growth inhibition

Structure (SMILES): FC(F)(F)c1ccc(-c2nnc(S)n2/N=C/c2nn[nH]n2)cc1 [CP 58, (E)-4-(((2H-Tetrazol-5-yl)methylene)amino)-5-(4-(trifluoromethyl)phenyl)-4H-1,2,4-triazole-3-thiol]
% Inib vs VIM-2 [1]: 53%

Structure (SMILES): COc1cccc(/C=N/n2cnnc2S)c1 [CP 20, (E)-4-((3-Methoxybenzylidene)amino)-4H-1,2,4-triazole-3-thiol]
inhibition [2]: 14% | inhibition [3]: 40%

Structure (SMILES): O=C(O)c1cccc(/C=N/n2c(S)nnc2-c2ccc(C(F)(F)F)cc2)c1 [CP 56, (E)-3-(((3-Mercapto-5-(4-(trifluoromethyl)phenyl)-4H-1,2,4-triazol-4-yl)imino)methyl)benzoic acid]
synergistic activity with MEM [5, 12]: detectable synergistic effect | % Inib vs VIM-2 [1]: 42% | growth inhibition, compound tested alone [9]: no growth inhibition

Structure (SMILES): Sc1nncn1/N=C/c1cccc(Br)c1 [CP 22, (E)-4-((3-Bromobenzylidene)amino)-4H-1,2,4-triazole-3-thiol]
inhibition [2]: 46% | inhibition [3]: 68% | IC50 [3]: 88.5 ± 3.7 µM | Ki [3, 14]: 42.7 µM

Structure (SMILES): FC(F)(F)c1ccccc1/C=N/n1cnnc1S [CP 17, (E)-4-((2-(Trifluoromethyl)benzylidene)amino)-4H-1,2,4-triazole-3-thiol]
inhibition [2]: 46% | inhibition [3]: 51% | IC50 [3]: > 100 µM and 226 µM
